Test [1] has as its target T1, aldosterone synthase (CYP11B2) (Homo sapiens, UniProt P19099).
T1 construct: host or cells: NCI-H295R
T1 sequence (P19099 25-503): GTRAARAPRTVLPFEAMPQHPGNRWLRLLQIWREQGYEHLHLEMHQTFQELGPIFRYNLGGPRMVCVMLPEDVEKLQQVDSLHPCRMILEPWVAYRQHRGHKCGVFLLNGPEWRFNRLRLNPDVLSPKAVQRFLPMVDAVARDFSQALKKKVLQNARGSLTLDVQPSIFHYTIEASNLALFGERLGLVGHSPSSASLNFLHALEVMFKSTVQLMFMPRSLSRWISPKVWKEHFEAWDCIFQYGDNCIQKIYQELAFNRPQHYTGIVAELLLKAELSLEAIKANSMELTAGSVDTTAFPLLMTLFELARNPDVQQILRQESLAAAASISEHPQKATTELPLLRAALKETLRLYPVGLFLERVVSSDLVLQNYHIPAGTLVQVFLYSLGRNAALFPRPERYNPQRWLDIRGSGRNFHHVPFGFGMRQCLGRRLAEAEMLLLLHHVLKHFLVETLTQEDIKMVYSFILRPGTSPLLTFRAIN
In words: in vitro aldosterone synthase inhibition, aldosterone production in Ang II-stimulated NCI-H295R cells. Format: cell-based. Particulars: read-out: AS IC50. An excerpt: In particular, the aldosterone synthase inhibitory activities in vitro can be determined by the following assay.
Human adrenocortical carcinoma NCI-H295R cell line is obtained from American Type Culture Collection (Manassas, Va.). Insulin/transferrin/selenium (ITS)-A supplement (100×), DMEM/F-12, antibiotic/antimycotic (100×), and fetal calf serum (FCS) are purchased from Gibco (Grand Island, N.Y.). Anti-mouse PVT scintillation proximity assay (SPA) beads and NBS 96-well plates are obtained from Amersham (Piscataway, N.J.) and Corning (Acton, Mass.), respectively. Solid black 96-well flat bottom plates were purchased from Costar (Corning, N.Y.). Aldosterone and angiotensin (Ang II) are purchased from Sigma (St. Louis, Mo.). D-[1,2,6,7-^3H(N)]aldosterone was acquired from PerkinElmer (Boston, Mass.). Nu-serum was a product of BD Biosciences (Franklin Lakes, N.J.).
For in vitro measurement of aldosterone activity, human adrenocortical carcinoma NCI-H295R cells are seeded in NBS 96-well plates at a density of 25,000 cells/well in 100 μl of a growth medium containing DMEM/F12 supplemented with 10% FCS, 2.5% Nu-serum, 1 μg ITS/ml, and 1× antibiotic/antimycotic. The medium is changed after culturing for 3 days at 37° C. under an atmosphere of 5% CO2/95% air. On the following day, cells are rinsed with 100 μl of DMEM/F12 and incubated with 100 μl of treatment medium containing 1 μM Ang II and a compound at different concentrations in quadruplicate wells at 37° C. for 24 hr. At the end of incubation, 50 μl of medium is withdrawn from each well for measurement of aldosterone production by an RIA using mouse anti-aldosterone monoclonal antibodies.
Measurement of aldosterone activity can also be performed using a 96-well plate format. Each test sample is incubated with 0.02 μCi of D-[1,2,6,7-^3H(N)]aldosterone and 0.3 μg of anti-aldosterone antibody in phosphate-buffered saline (PBS) containing 0.1% Triton X-100, 0.1% bovine serum albumin, and 12% glycerol in a total volume of 200 μl at room temperature for 1 hr. Anti-mouse PVT SPA beads (50 μl) are then added to each well and incubated overnight at room temperature prior to counting in a Microbeta plate counter. The amount of aldosterone in each sample is calculated by comparing with a standard curve generated using known quantities of the hormone.

A further test concerns the target T2, CYP11B1 (Homo sapiens, UniProt P15538).
T2 construct: Thus, the NCI-H295R cells have Cyp11 B1 (steroid 11 p-hydroxylase); host or cells: NCI-H295R
T2 sequence (P15538 25-503): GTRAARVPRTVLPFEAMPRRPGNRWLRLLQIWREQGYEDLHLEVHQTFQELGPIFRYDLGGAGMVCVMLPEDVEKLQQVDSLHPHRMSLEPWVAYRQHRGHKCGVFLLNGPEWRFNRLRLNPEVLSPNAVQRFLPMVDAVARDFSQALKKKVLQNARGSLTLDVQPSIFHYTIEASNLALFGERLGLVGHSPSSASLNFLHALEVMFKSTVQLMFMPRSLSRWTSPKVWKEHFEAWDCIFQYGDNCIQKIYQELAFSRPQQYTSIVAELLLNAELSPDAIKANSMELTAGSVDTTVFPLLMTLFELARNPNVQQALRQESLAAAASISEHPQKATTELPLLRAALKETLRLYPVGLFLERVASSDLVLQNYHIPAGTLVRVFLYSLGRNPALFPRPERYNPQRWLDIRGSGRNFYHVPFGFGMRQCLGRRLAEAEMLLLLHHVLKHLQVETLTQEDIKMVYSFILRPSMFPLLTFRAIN
The test is described as follows: in vitro CYP11B1 inhibition, steroid release from NCI-H295R cells. The class given is cell-based. Particulars: for inhibition at 0.1 µM: NCI-H295R, read-out: 11B1 % I @ 100 nM. An excerpt:
The in vitro inhibitory activities for CYP11B1 can be determined by the following assay.
The cell line NCI-H295R was originally isolated from an adrenocortical carcinoma and has been characterized in the literature through the stimulable secretion of steroid hormones and the presence of the enzymes essential for steroidogenesis. Thus, the NCI-H295R cells have Cyp11 B1 (steroid 11 p-hydroxylase). The cells show the physiological property of zonally undifferentiated human foetal adrenocortical cells which, however, have the capacity to produce the steroid hormones which are formed in the three, phenotypically distinguishable zones in the adult adrenal cortex.
The NCI-H295R cells (American Type Culture Collection, ATCC, Rockville, Md., USA) are grown in Dulbeoco's Modified Eagle'Ham F-12 Medium (DME/F12), which has been I supplemented with Ulroser SF Serum (Soprachem, Cergy-Saint-Christophe, France), insulin, transferrin, selenite (I-T-S, Becton Dickinson Biosciences, Franklin lakes, NJ, USA) and antibiotics in 75 cm^2 cell culture vessels at 37° C. and in a 95% air-5% carbon dioxide atmosphere. The cells are subsequently transferred for colony formation into a 24-well incubation vessel. They are cultivated there in DME/F12 medium, which is now supplemented with 0.1% bovine serum instead of Ultroser SF for 24 hours. The experiment is initiated by cultivating the cells in DME/F12 medium which is supplemented with 0.1% bovine serum albumin and test compound, in the presence or absence of cell stimulants, for 72 hours. The test substance is added in a concentration range from 0.2 nanomolar to […]. Cell stimulants which can be used are angiotensin 11 ([…] or 100 nanomolar), potassium ions (16 millimolar), forskolin (10 micromolar) or a combination of two stimulants.
The excretion of aldosterone, cortisol, corticosterone and estradiol/estrone into the culture medium can be detected and quantified by commercially available, specific monoclonal antibodies in radioimmunoassays in accordance with the manufacturer's instructions.
Inhibition of the release of certain steroids can be used as a measure of the respective enzyme inhibition by the added test compounds. The dose-dependent inhibition of enzymic activity by a compound is calculated by means of an inhibition plot which is characterized by an IC50.
The IC50 values for active test compounds are ascertained by a […] in order to construct inhibition plots without data weighting. The inhibition plot is calculated by fting a 4-parameter logistic function to the raw data points using the least squares method. The equation of the 4-parameter logistic function is calculated as follows: Y=(d−a)/((1+(x/c)b))+a I where: a=minimum data level b=gradient I c=ICED, d=maximum data level x=inhibitor concentration.

Molecules are shown by their SMILES. pIC50: −log10 of the molar value.

By pIC50 is commonly meant −log10 of the IC50, conventionally taken in molar units.

Turning to `CC1(C)C(n2cncc2CO)c2ccccc2S1(=O)=O` (stereo not drawn) [Compound 24, [3-(2,2-Dimethyl-1,1-dioxo-2,3-dihydro-1H-1lambda*6*-benzo[b]thiophen-3-yl)-3H-imidazol-4-yl]-methanol], the pIC50 in test [1] is 6.71. On CYP11B1, the inhibition at 0.1 µM was 93%.
The corresponding values for `CC(C)OC(=O)c1cncn1C1CCOc2ccccc21` (single isomer, unassigned) [Compound 15, 3-Chroman-4-yl-3H-imidazole-4-carboxylic acid isopropyl ester] are 6.99 and 65%.
For `Cc1noc(-c2cncn2C2c3ccccc3CC2(C)C)n1` (stereo not drawn) [Compound 21, 5-[3-(2,2-Dimethyl-indan-1-yl)-3H-imidazol-4-yl]-3-methyl-[1,2,4]oxadiazole], in test [1], the pIC50 is 6.89. Also, the inhibition at 0.1 µM on CYP11B1 stood at 98%.
Take `COC(=O)c1cncn1[C@H]1c2ccccc2[C@@H](O)CC1(C)C` (relative stereo) [Compound 11, 3-(cis-4-Hydroxy-2,2-dimethyl-1,2,3,4-tetrahydro-naphthalen-r-1-yl)-3H-imidazole-4-carboxylic acid methyl ester]: in test [1], the negative logarithm of the IC50 (pIC50) was 7.23. Besides, the “11B1 % I @ 100 nM” value on CYP11B1 (100 nM) was determined as 100%.
Regarding `COC(=O)c1cncn1C1c2ccccc2C(=O)CC1(C)C` (single isomer, unassigned) [Compound 10, 3-(2,2-Dimethyl-4-oxo-1,2,3,4-tetrahydro-naphthalen-1-yl)-3H-imidazole-4-carboxylic acid methyl ester], the pIC50 in test [1] was 7.57. For the same molecule, the inhibition at 0.1 µM at CYP11B1 was found to be 99%.
The corresponding values for `CCc1cncn1C1CCC(C)(C)c2ccccc21` (single isomer, unassigned) [Compound 8, 1-(4,4-Dimethyl-1,2,3,4-tetrahydro-naphthalen-1-yl)-5-ethyl-1H-imidazole] are 7.46 and 100%.

Values taken from patent US8436035B2, “Organic compounds” (Novartis AG, priority 2006, dated 2013).
